According to BigSolDB 2.1:

CCO.C[C@H]1c2cccc(O)c2C(O)=C2C(=O)[C@]3(O)C(O)=C(C(N)=O)C(=O)[C@@H](N(C)C)[C@@H]3[C@@H](O)[C@@H]21.C[C@H]1c2cccc(O)c2C(O)=C2C(=O)[C@]3(O)C(O)=C(C(N)=O)C(=O)[C@@H](N(C)C)[C@@H]3[C@@H](O)[C@@H]21.Cl.Cl.O
Settings | solubility (mole fraction)
in ethanol, 278.15 K | 0.00199
in ethanol, 283.15 K | 0.00222
in ethanol, 288.15 K | 0.00248
in ethanol, 293.15 K | 0.00278
in ethanol, 298.15 K | 0.00313
in ethanol, 302.85 K | 0.00327
in ethanol, 307.25 K | 0.00364
in ethanol, 312.95 K | 0.00409
in ethanol, 318.15 K | 0.0047
in ethanol, 323.05 K | 0.00522
in methanol, 278.15 K | 0.0138
in methanol, 283.15 K | 0.015
in methanol, 288.15 K | 0.016
in methanol, 293.15 K | 0.0174
in methanol, 298.15 K | 0.0198
in methanol, 302.85 K | 0.0251
in methanol, 307.25 K | 0.0292
in methanol, 312.95 K | 0.0332
in methanol, 318.15 K | 0.0402
in methanol, 323.05 K | 0.044
in n-propanol, 278.15 K | 0.000862
in n-propanol, 283.15 K | 0.00101
in n-propanol, 288.15 K | 0.00111
in n-propanol, 293.15 K | 0.00133
in n-propanol, 298.15 K | 0.00151
in n-propanol, 303.15 K | 0.00174
in n-propanol, 309.75 K | 0.00222
in n-propanol, 316.65 K | 0.00273
in n-propanol, 322.55 K | 0.00351
in water, 277.55 K | 0.00128
in water, 283.05 K | 0.00132
in water, 287.85 K | 0.0014
in water, 292.95 K | 0.00164
in water, 299.15 K | 0.00214
in water, 302.35 K | 0.00254
in water, 307.45 K | 0.00306
in water, 313.25 K | 0.00405
in water, 317.85 K | 0.00534
in water, 323.05 K | 0.00647
